The values that follow are results of earlier work, collected in patent publication US20090253799A1 (priority 2008, published 2009).

This series deals with T1, wildtype CFTR (Homo sapiens, UniProt P13569).
T1 construct: expressed in transfected cells
The settings on record: Muanprasat et al. 2004.

T1 sequence (P13569 whole entry): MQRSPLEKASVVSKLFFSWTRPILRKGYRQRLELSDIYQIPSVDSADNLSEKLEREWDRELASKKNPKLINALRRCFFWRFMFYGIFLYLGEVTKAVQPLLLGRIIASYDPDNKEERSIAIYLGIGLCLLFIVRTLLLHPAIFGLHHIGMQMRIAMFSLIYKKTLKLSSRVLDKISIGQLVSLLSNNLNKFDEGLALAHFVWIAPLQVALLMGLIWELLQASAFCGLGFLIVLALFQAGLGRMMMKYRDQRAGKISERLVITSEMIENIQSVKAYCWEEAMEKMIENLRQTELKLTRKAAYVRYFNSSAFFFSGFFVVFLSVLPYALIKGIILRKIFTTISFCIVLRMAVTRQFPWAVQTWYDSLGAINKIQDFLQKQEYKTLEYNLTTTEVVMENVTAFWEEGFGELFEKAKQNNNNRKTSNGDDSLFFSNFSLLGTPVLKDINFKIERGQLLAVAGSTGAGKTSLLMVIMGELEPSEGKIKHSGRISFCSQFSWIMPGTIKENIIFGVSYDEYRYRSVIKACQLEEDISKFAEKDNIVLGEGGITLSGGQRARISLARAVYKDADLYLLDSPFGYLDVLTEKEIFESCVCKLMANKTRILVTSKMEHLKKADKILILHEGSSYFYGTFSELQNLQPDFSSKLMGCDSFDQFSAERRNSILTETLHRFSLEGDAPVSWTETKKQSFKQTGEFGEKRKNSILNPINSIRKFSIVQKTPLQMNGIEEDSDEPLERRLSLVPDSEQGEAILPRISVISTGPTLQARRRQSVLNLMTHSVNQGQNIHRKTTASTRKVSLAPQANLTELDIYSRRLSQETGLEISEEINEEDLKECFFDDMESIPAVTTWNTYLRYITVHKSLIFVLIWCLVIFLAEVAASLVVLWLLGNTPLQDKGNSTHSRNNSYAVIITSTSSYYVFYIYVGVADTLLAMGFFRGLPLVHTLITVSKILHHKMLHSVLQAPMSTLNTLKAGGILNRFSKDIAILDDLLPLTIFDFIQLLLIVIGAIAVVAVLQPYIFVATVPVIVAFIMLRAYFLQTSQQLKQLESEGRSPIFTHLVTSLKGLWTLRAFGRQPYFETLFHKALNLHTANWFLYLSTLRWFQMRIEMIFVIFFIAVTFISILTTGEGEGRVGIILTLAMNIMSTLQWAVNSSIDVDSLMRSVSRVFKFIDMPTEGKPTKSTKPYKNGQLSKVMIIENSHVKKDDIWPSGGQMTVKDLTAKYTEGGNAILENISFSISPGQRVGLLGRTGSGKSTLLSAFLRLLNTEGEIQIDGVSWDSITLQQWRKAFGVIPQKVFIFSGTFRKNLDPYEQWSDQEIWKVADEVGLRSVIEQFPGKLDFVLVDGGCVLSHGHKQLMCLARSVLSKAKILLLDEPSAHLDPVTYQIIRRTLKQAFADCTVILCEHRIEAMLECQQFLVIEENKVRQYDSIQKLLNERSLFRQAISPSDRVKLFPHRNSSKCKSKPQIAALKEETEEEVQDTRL

In the case of `O=C(CNc1ccc2ccccc2c1)N/N=C/c1cc(Br)c(O)c(Br)c1O` [GlyH-101], the “time constants for block and unblock” value is 8 to 10 ms.
